For the assay, the target named is Beta-secretase 1 (Homo sapiens, UniProt P56817). Briefly: Inhibition of BACE1-mediated amyloid precursor protein cleavage after 16 hrs by chemiluminescent enzyme-fragment complementation assay.

Structures are written as SMILES.

Sequence of Beta-secretase 1 (P56817 whole entry, the tested form may be a part): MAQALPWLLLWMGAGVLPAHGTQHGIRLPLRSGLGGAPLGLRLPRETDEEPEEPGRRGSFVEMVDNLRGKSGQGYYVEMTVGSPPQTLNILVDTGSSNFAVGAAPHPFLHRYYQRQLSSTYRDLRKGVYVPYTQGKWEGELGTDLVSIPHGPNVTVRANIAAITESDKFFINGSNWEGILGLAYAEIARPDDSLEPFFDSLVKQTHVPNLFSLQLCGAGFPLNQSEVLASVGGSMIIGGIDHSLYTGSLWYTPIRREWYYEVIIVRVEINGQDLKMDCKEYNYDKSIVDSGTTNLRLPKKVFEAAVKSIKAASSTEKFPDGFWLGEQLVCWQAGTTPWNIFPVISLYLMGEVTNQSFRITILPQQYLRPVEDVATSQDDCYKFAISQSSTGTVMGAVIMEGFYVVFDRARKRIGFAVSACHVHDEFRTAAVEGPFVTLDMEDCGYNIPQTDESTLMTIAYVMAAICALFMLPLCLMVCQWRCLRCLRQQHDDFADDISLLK

The term IC50 denotes the midpoint of a concentration-inhibition curve. Read a low IC50 as higher potency. On to `C[C@H](CC(=O)[C@@]1([C@H](C)C(=O)O)CO1)[C@H]1CC[C@@]2(C)C3=C(CC[C@]12C)[C@@]1(C)CC[C@@H](OC(=O)CC(=O)O)C(C)(C)[C@@H]1CC3` [DAEDALOL C], for which the half-inhibitory concentration (IC50) turned out to be 14.2 µM.

These data come from ChEMBL document CHEMBL1914397, “Daedalols A-C, fungal-derived BACE1 inhibitors” (Bioorg Med Chem, 2011).
